According to patent US7144880B2, “Compositions relating to novel compounds and targets thereof” (Regents of the University of Michigan, priority 2003, dated 2006):

What was measured:
[1] = tested on: neuroblastoma cell line SHEP-1; assay: Antiproliferation, 72 h, media with 10% FBS; type: cell-based; details: SHEP-1, 72 h, read-out: ED50 (μM) for antiproliferation
Method: (§1) Like most 1,4-benzodiazepines, Bz-423 binds strongly to bovine serum albumin (BSA), which reduces the effective concentration of drug free in solution. For example, in tissue culture media containing 10% (v/v) fetal bovine serum (FBS), ca. 99% of the drug is bound to BSA. Therefore, cell culture cytotoxicity assays are conducted in media with 2% FBS to reduce binding to BSA and increase the free [Bz-423]. Under these conditions, the dose response-curve is quite sharp such that there is a limited concentration range at which Bz-423 is only partly effective. Since some benzodiazepines are known to have anti-proliferative properties, the effect of Bz-423 at concentrations <ED50 were carefully analyzed and observed that in addition to inducing apoptosis, Bz-423 prevented cell growth after 3 d in culture. In these low serum conditions, the cytotoxic and anti-proliferative effects overlapped making it difficult to study each effect independently. […] While higher amounts of drug may also block proliferation, it caused apoptosis well before the effects on proliferation could be observed.
To confirm the decrease in cell number relative to control cells after 3 d of treatment is due to decreased proliferation and not cell death balanced by proliferation, in addition to cell counting, cell divisions were studied. PKH-67 is a fluorescent probe that binds irreversibly to cell membranes and upon cell division is partitioned equally between the daughter cells, making it possible to quantify cell division by flow cytometry. Ramos cells stained with PKH67 and treated with Bz-423 had fewer cell divisions at sub-cytotoxic concentrations which confirmed that the decrease in cell number was due to anti-proliferative affects and not cell death. To determine if Bz-423 induced anti-proliferation was specific to Ramos cells, cell counting and cell cycle experiments were done in other B cell lines and cell lines derived from solid tumors.

[2] = tested on: isolated rat liver mitochondria; assay: ROS production in isolated mitochondria (DCFH oxidation to DCF); type: biochemical
Method: Male Long Evans rats are starved overnight and sacrificed by decapitation. Liver samples are homogenized in ice cold buffer A (250 mM sucrose, 10 mM Tris, 0.1 mM EGTA, pH 7.4), and nuclei and cellular debris are pelleted (10 min, 830 g, 4° C.). Mitochondria are collected by centrifugation (10 min, 15,000 g, 4° C.), and the supernatant is collected as the S15 fraction. The mitochondrial pellet is washed three times with buffer B (250 mM sucrose, 10 mM Tris, pH 7.4), and re-suspended in buffer B at 20–30 mg/mL. Mitochondria are diluted (0.5 mg/mL) in buffer C (200 mM sucrose, 10 mM Tris, pH 7.4, 1 mM KH2PO4, 10 μM EGTA, 2.5 μM rotenone, 5 mM succinate) containing 2′,7′-dichlorodihydrofluorescin diacetate (DCFH-DA, 1 μM). For state 3 measurements, ADP (2 mM) is included in the buffer, and prior to the addition of Bz-423, mitochondria are allowed to charge for 2 min. To induce state 4, oligomycin (10 μM) is added to buffer C. […] To detect effects on O2^− and delta ψm, mitochondria are incubated for 15 min at 37° C. in buffer C with vehicle, Bz-423, or CCCP containing DHE (5 μM) or DIOC6(3) (20 nM), and aliquots are removed for analysis by fluorescence microscopy.
O2^− production by Bz-423 may result from binding to a protein within mitochondria or a target in another compartment that signals mitochondria to generate ROS. To distinguish between these alternatives, isolated rat liver mitochondria were assayed for ROS production by monitoring the oxidation of 2′,7′-dichlorodihydrofluorescin diacetate to of 2′,7′-dichlorofluorescin in the presence and absence of Bz-423. In this assay, the rate of DCF production increased after a lag period during which endogenous reducing equivalents were consumed and the acetate moieties on the probe were hydrolyzed to yield 2′,7′-dichlorodihydrofluorescin, the redox-active species.

[3] = tested on: Ramos cells; assay: Gene expression profiling (Affymetrix U133A) of treated cells; type: cell-based, human; details: versus control cells
Method: In vitro testing with Ramos cells to determine the changes in gene expression (at the level of mRNA) induced by Bz-423 was performed by culturing cells at a density of 500,000 cells per ml. Solvent control (DMSO, final concentration 0.1% V/V]), Bz-423, or Bz-OMe (10 μM) was added to cells. After 4 h, cells were harvested and RNA prepared using Trizol Reagent (#15596-018, Life Technologies, Rockville, Md.) and the RNeasy Maxi Kit (# 75162, Qiagen, Valencia, Calif.) according to manufacturers protocols. Single stranded cDNA was synthesized by reverse transcription using poly (A) RNA present in the starting total RNA sample. Single stranded cDNA was converted into double stranded cDNA and then in vitro transcription carried out in the presence of biotinylated UTP and CTP to produce biotin-labeled cRNA. cRNA was fragmented in the presence of Mg2+, and hybridized to the human genome U133A Genechip array (Affymetrix). Hybridization results were quantified using a GeneArray scanner and analysis carried out according to the instructions provided by Affymetrix. […]
The data were analyzed to detect genes changes Bz treatment according to the criteria that the log-transformed mean signal changed at least four-fold in treated compared to vehicle control samples and that the coefficient of variance for control values (n=4) was less than 10%. […]

[4] = tested on: sub-mitochondrial particles; assay: Redox cycling, NADH and NAD(P)H oxidation assays with sub-mitochondrial particles; type: biochemical; details: SMPs
Method: By contrast, replacing the hydroxyl with chlorine or azide, or methylating the phenol effectively abolishes the cytotoxic activity of Bz-423. […] Such agents accept an electron from MRC enzymes and transfer it back to the chain at point of higher reducing potential. This type of ‘redox cycling’ consumes endogenous reducing equivalents (e.g., glutathione) along with […] nucleotides and results in cell death. To distinguish between these alternatives, it was determined whether Bz-423 redox cycles in the presence of sub-mitochondrial particles using standard NADH and NAD(P)H oxidation assays.

[5] = tested on: Ramos cells; assay: Cytotoxicity in media containing 10% FBS; type: cell-based, human
Text: as §1, with “Therefore, cell culture cytotoxicity assays are conducted in media with 2% FBS to reduce binding to BSA and increase the free [Bz-423].” left out

CN1C(=O)C(Cc2ccc3ccccc3c2)N=C(c2ccc(O)cc2)c2cc(Cl)ccc21 (stereo not shown) [Bz-423]
EC50 [1]: 15.9 µM | Increase in rate of ROS production versus control ([2]; state 3 respiration, aerobic, after induction phase, slopes compared to control): nearly two-fold | ROS production in state 4 mitochondria ([2]; state 4 respiration): does not stimulate ROS | Induction of MIF expression [3]: approximately 10 fold | Redox cycling (substrate oxidation) [4]: does not lead to substrate oxidation | Cytotoxicity ([5]; 10–15 μM): minimal cytotoxicity | Cytotoxicity ([5]; >20 μM): only apoptosis was observed
